# Laboratory results published in ChEMBL document CHEMBL5291721, “A preclinical secondary pharmacology resource illuminates target-adverse drug reaction associations of marketed drugs” (Nat Commun, 2023).
# Experiments:
# [1] = target: T1, Alpha-1A adrenergic receptor (Homo sapiens, UniProt P35348); assay type: functional, cell-based
# T1 sequence (P35348 whole entry): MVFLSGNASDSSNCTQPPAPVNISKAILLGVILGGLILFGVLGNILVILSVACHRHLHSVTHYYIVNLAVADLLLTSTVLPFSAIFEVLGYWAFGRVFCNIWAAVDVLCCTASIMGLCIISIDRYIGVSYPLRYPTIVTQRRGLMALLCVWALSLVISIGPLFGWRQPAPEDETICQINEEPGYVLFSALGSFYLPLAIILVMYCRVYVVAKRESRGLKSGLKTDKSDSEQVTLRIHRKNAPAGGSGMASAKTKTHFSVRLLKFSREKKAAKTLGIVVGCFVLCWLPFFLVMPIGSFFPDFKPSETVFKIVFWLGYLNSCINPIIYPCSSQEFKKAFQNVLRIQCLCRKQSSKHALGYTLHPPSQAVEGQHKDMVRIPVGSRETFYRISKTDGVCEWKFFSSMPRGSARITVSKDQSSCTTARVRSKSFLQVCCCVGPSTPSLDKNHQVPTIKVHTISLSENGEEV
# [2] = target: T1, Alpha-1A adrenergic receptor
# [3] = target: Beta-2 adrenergic receptor (Homo sapiens, UniProt P07550)
# Endothelin-1 receptor = target: T2, Endothelin-1 receptor (Homo sapiens, UniProt P25101)
# T2 sequence (P25101 whole entry): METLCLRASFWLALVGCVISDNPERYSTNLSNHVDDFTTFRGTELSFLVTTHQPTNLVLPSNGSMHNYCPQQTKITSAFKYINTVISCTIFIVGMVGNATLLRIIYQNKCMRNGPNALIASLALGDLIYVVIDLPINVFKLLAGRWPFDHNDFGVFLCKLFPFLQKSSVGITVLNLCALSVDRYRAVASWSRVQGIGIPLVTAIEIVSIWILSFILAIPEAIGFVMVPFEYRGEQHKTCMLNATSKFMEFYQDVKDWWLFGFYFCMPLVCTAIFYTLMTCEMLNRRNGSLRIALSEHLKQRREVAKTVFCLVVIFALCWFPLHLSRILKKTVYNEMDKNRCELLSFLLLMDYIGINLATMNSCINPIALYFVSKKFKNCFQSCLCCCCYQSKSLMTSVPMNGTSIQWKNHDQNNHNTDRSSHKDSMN
# Estrogen receptor = target: T3, Estrogen receptor (Homo sapiens, UniProt P03372)
# T3 sequence (P03372 whole entry): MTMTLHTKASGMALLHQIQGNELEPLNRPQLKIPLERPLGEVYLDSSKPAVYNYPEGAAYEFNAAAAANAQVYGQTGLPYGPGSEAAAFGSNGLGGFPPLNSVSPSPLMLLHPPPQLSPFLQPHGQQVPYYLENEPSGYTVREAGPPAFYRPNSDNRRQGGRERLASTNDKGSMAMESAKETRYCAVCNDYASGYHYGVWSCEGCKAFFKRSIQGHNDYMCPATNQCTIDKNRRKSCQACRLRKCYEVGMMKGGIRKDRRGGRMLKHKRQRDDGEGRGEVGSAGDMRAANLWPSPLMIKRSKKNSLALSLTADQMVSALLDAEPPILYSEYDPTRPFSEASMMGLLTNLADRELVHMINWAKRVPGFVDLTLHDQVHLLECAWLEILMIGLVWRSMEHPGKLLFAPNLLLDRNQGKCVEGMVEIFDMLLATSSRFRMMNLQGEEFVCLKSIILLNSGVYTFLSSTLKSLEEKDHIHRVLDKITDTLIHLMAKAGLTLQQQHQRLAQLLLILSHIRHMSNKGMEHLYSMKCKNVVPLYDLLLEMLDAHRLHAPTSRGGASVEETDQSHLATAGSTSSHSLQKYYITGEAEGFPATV
# [4] = target: T4, Gamma-aminobutyric acid receptor subunit alpha-1 (Rattus norvegicus, UniProt P62813)
# [5] = target: T4, Gamma-aminobutyric acid receptor subunit alpha-1; assay type: functional
# [6] = target: Growth hormone secretagogue receptor type 1 (Homo sapiens, UniProt Q92847)
# [7] = target: Glutamate receptor ionotropic, NMDA 1 (Rattus norvegicus, UniProt P35439)
# [8] = target: T5, 5-hydroxytryptamine receptor 1A (Homo sapiens, UniProt P08908); assay type: functional, cell-based
# T5 sequence (P08908 whole entry): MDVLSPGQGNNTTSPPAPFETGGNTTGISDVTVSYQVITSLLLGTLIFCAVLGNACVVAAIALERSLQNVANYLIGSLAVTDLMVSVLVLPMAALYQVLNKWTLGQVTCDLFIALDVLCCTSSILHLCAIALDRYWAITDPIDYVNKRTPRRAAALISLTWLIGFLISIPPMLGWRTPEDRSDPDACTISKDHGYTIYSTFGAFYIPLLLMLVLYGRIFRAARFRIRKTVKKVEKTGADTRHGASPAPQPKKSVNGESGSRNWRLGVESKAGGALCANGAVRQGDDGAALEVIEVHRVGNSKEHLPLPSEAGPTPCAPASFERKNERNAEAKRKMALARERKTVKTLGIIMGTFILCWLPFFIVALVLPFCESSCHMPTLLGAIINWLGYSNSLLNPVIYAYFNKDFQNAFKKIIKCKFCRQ
# Melanocortin receptor 4 = Melanocortin receptor 4 (Homo sapiens, UniProt P32245)
# Motilin receptor = Motilin receptor (Homo sapiens, UniProt O43193)
# [9] = target: cGMP-inhibited 3',5'-cyclic phosphodiesterase 3A (Homo sapiens, UniProt Q14432); assay type: functional
# Histamine H3 receptor = Histamine H3 receptor (Homo sapiens, UniProt Q9Y5N1)
# [10] = target: Muscarinic acetylcholine receptor M3 (Homo sapiens, UniProt P20309)
# D(3) dopamine receptor = D(3) dopamine receptor (Homo sapiens, UniProt P35462)
# Also: assay procedure not described here.
# Chain of Growth hormone secretagogue receptor type 1 (Q92847 whole entry): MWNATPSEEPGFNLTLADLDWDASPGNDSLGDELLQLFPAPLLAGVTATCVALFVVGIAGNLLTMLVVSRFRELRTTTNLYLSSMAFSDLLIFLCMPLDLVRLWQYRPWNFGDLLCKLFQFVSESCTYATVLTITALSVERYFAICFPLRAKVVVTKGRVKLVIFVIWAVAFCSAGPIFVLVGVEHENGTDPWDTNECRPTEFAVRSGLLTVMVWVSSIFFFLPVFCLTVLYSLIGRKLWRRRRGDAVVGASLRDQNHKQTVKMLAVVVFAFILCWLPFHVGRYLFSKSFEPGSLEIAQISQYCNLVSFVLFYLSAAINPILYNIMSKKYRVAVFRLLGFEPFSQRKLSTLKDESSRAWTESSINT
# Chain of Beta-2 adrenergic receptor (P07550 whole entry): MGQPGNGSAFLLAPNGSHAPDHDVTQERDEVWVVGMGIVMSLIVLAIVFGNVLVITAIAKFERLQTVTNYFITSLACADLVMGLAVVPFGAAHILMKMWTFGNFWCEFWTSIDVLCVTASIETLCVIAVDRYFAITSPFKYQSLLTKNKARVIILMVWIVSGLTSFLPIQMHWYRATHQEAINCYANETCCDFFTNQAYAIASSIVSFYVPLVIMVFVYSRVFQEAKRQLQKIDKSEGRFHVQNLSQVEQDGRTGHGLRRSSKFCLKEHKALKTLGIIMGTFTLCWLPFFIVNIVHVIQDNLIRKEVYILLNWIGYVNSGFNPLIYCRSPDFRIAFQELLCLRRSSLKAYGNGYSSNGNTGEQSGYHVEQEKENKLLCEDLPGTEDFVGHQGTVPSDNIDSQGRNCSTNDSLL
# Chain of cGMP-inhibited 3',5'-cyclic phosphodiesterase 3A (Q14432 whole entry): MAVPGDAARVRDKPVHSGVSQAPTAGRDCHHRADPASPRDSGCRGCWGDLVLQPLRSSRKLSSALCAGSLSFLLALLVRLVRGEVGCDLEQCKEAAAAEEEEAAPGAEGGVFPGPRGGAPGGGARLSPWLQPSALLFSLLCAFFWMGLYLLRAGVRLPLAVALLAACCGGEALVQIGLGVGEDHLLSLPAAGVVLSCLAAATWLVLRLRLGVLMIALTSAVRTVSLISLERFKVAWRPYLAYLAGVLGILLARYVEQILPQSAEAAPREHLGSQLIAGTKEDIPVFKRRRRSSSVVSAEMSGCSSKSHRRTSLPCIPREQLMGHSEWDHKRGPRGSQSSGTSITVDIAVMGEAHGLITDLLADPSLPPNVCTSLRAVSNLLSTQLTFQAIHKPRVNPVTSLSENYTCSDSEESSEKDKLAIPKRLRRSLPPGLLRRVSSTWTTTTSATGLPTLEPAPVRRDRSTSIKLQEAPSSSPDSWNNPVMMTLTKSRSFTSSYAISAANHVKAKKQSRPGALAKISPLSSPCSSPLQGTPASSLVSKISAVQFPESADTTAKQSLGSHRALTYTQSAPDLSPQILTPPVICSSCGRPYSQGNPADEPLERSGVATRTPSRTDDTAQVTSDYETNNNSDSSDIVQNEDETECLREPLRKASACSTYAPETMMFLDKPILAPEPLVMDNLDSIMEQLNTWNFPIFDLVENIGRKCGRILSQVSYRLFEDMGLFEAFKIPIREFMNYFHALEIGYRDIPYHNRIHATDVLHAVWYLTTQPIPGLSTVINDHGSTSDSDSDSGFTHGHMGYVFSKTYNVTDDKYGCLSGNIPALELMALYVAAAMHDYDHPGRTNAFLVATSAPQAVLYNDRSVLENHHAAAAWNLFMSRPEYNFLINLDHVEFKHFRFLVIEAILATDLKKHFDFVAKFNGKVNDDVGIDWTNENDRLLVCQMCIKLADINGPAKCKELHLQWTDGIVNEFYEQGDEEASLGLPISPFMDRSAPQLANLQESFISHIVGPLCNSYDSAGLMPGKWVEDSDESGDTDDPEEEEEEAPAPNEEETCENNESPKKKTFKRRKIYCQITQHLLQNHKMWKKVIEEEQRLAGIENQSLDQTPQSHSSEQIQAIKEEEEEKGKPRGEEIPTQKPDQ
# Chain of Melanocortin receptor 4 (P32245 whole entry): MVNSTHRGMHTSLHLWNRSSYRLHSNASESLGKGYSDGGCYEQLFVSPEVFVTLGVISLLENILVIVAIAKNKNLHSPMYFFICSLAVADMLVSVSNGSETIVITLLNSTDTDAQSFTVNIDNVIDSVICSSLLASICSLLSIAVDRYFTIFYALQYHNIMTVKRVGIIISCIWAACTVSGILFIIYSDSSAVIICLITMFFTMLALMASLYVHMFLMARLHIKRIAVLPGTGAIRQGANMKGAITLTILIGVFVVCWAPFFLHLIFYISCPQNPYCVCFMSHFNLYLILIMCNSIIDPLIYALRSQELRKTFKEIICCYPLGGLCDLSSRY
# T4 sequence (P62813 whole entry): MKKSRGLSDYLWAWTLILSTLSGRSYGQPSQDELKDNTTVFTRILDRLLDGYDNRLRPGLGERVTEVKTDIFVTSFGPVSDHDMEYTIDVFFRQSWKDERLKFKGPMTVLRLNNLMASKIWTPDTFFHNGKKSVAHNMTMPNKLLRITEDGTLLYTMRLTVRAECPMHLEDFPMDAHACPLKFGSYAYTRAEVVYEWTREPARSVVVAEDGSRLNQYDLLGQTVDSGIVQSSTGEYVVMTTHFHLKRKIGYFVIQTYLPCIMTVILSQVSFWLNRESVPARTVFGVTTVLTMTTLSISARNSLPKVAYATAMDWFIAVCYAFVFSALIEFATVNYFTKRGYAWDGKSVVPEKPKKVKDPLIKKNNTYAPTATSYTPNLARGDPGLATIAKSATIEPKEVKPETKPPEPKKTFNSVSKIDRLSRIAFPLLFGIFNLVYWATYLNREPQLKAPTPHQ
# Chain of Motilin receptor (O43193 whole entry): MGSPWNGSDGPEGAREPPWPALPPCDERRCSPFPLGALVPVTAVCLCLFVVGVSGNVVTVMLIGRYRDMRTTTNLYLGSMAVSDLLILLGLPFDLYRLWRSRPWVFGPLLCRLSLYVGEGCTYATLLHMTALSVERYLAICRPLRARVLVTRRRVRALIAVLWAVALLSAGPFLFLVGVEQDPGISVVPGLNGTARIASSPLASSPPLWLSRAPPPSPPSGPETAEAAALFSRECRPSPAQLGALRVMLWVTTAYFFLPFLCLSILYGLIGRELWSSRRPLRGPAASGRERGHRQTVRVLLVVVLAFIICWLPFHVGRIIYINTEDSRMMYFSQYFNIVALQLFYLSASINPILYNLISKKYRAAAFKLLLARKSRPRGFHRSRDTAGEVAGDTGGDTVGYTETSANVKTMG
# Chain of D(3) dopamine receptor (P35462 whole entry): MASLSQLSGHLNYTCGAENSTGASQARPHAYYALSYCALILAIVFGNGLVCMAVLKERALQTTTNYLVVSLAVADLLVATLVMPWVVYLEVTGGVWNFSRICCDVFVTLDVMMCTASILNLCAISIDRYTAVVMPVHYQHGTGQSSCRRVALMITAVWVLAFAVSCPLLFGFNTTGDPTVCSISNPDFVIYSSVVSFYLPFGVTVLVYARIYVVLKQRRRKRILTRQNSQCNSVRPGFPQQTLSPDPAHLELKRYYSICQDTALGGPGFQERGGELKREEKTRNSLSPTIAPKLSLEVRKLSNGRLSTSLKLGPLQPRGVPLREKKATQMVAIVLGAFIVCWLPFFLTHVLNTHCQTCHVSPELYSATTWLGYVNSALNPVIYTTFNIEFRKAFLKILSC
# Chain of Histamine H3 receptor (Q9Y5N1 whole entry): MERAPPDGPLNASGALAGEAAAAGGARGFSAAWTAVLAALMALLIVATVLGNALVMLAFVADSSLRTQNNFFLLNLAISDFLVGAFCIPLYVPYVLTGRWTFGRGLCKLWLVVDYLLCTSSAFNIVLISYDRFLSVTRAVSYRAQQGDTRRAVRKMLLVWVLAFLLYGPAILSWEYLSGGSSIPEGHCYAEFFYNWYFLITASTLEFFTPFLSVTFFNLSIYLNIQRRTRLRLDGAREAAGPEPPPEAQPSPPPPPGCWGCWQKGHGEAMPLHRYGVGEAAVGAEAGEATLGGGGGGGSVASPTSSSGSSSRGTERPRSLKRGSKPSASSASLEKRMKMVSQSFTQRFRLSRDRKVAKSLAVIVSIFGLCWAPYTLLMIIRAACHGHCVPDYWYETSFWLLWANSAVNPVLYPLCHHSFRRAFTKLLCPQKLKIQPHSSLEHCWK
# Chain of Muscarinic acetylcholine receptor M3 (P20309 whole entry): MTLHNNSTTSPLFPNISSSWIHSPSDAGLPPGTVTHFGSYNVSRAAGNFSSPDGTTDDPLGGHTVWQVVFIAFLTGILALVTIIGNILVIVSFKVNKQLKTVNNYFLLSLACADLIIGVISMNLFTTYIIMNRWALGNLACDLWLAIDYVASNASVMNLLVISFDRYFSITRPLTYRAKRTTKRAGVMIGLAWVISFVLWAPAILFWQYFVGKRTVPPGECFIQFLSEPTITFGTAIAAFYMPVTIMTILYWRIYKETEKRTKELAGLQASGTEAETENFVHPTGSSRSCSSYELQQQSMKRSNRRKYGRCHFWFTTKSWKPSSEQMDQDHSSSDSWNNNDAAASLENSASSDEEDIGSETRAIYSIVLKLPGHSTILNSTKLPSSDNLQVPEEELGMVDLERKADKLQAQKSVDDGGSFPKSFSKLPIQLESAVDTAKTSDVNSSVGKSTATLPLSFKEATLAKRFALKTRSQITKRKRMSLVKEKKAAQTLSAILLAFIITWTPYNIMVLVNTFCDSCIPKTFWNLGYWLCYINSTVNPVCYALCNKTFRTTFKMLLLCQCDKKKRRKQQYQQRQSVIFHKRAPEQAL
Compound,AC50 [1] [µM],AC50 [2] [µM],AC50 [3] [µM],AC50 (Endothelin-1 receptor) [µM],AC50 (Estrogen receptor) [µM],AC50 [4] [µM],AC50 [5] [µM],AC50 [6] [µM],AC50 [7] [µM],AC50 [8] [µM],AC50 (Melanocortin receptor 4) [µM],AC50 (Motilin receptor) [µM],AC50 [9] [µM],AC50 (Histamine H3 receptor) [µM],AC50 [10] [µM],AC50 (D(3) dopamine receptor) [µM]
CCOC(=O)C1=C(C)NC(C)=C(C(=O)OC)C1c1cccc(Cl)c1Cl (stereo unspecified) [FELODIPINE],> 30,13,> 10,> 30,> 30,> 10,> 10,> 30,> 10,> 10,> 30,> 10,> 30,> 10,,
O=C(C[S+]([O-])Cc1ccco1)NC/C=C\COc1cc(CN2CCCCC2)ccn1 (stereo unspecified) [LAFUTIDINE],> 30,> 10,> 10,,> 10,> 10,> 10,> 10,> 10,> 30,> 10,> 10,> 30,> 10,> 30,> 30
CCN(CC)C(C)C(=O)c1ccccc1 (stereo unspecified) [DIETHYLPROPION],> 30,> 10,> 10,> 30,> 30,> 10,> 10,> 30,> 10,> 10,> 30,> 10,> 30,> 10,> 30,> 30
Cc1ccc(-c2ncc(Cl)cc2-c2ccc(S(C)(=O)=O)cc2)cn1 [ETORICOXIB],> 30,> 10,> 10,> 30,> 30,> 10,> 10,> 10,> 10,> 10,> 10,> 10,> 10,> 10,> 10,> 10
O=C1CN=C(c2ccccc2Cl)c2cc([N+](=O)[O-])ccc2N1 [CLONAZEPAM],> 30,11.9,> 10,> 30,> 30,> 10,0.0025,> 30,> 10,> 10,> 30,> 10,> 30,> 10,,> 10
Cc1nnc2n1-c1ccc(Cl)cc1C(c1ccccc1)=NC2 [ALPRAZOLAM],> 30,> 10,> 10,> 30,> 30,> 10,0.0042,> 30,> 10,> 10,> 30,> 10,> 30,> 10,,> 10
